Read-outs that look alike come from different tables or passages of the source.
What was measured:
[1] = target: T1, human P-gp (Homo sapiens, UniProt P08183); settings: 2 μM inhibitor, LLC-GA5-COL150, after last sampling (3 h)
[2] = tested on: P-gp; settings: cited from earlier work
[3] = target: T1, human P-gp; assay: Transcellular transport of PSC833 in LLC-PK1 and LLC-GA5-COL150 cells
[4] = target: T1, human P-gp
[5] = clinical trials, cited from earlier work
[6] = target: T1, human P-gp; settings: for effect on [14C]doxorubicin transport: LLC-GA5-COL150

T1 sequence (P08183 whole entry): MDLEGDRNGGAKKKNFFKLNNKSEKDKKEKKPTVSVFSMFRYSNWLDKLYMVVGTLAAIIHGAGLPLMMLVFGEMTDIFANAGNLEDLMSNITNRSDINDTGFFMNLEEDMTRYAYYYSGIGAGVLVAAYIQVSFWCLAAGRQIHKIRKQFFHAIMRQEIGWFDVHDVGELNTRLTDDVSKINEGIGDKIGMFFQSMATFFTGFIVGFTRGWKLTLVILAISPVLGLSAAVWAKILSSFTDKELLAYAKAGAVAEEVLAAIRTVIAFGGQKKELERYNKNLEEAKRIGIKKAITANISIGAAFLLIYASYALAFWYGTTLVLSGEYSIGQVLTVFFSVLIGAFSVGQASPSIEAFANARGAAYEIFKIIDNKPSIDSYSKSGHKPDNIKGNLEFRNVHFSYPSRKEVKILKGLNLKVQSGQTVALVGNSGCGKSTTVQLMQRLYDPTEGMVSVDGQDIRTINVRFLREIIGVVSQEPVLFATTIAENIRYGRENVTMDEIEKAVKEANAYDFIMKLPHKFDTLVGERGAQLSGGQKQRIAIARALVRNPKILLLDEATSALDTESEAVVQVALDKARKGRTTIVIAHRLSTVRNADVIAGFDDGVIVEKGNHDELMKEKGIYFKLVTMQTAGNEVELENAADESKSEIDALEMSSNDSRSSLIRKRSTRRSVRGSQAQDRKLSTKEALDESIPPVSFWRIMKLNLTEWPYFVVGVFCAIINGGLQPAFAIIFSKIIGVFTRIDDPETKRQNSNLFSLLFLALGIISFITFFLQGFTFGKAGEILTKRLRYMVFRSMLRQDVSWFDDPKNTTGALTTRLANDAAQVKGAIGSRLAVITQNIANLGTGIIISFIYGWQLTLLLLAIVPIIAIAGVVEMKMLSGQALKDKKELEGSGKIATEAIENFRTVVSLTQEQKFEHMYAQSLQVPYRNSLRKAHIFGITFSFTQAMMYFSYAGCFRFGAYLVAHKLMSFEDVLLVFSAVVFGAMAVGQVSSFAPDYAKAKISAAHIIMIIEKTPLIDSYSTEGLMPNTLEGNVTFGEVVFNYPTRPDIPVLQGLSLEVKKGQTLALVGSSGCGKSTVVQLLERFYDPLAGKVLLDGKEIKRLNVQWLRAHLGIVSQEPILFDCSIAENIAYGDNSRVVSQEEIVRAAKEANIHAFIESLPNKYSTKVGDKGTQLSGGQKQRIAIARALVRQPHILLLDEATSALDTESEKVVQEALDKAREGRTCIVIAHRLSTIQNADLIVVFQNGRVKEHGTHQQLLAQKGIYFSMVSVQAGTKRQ

## C/C=C/C[C@@H](C)C(=O)[C@H]1C(=O)N[C@@H](C(C)C)C(=O)N(C)CC(=O)N(C)[C@@H](CC(C)C)C(=O)N[C@@H](C(C)C)C(=O)N(C)[C@@H](CC(C)C)C(=O)N[C@@H](C)C(=O)N[C@H](C)C(=O)N(C)[C@@H](CC(C)C)C(=O)N(C)[C@@H](CC(C)C)C(=O)N(C)[C@@H](C(C)C)C(=O)N1C [PSC833, [3′‐keto‐Bmt1]‐Val2]‐cyclosporin]
[1]
  intracellular accumulation of [3H]vinblastine: approached the control level
[2]
  more effective than Cs-A in displacing the photoactivatable cyclosporin analogue: approximately 2.5 fold
[3]; 10 μM PSC833, 3 and 6 h, 37C, HPLC-UV
  transported amount in LLC-GA5-COL150 cells compared with LLC-PK1 cells: approximately the same
[3]; LLC-GA5-COL150 vs LLC-PK1 monolayers, 10 μM, both directions
  transport by P-gp: not transported
[4]; 2 μM inhibitor, LLC-GA5-COL150
  effect on [3H]vinblastine transport: almost completely inhibited
[4]; Table I
  IC50 of PSC833 for vinblastine transport as % of that of Cs-A: 20%
[4]; ratio of IC50 values, Table I
  IC50 of PSC833 less than that of Cs-A for [3H]vinblastine transport: about 5 fold
[5]
  concentrations at which the AUC of coadministered anticancer drugs increased: 1000 to 2000 ng/mL
[5]; combination therapy with PSC833 and doxorubicin
  increase in the AUC of doxorubicin: 20-199%
[6]; 0.1 μM inhibitor
  effect on [14C]doxorubicin transport: little inhibitory effect
[6]; Table I
  IC50 of PSC833 for [14C]doxorubicin transport as % of that of Cs-A: 10%
[6]; inhibitor concentrations greater than 0.5 μM
  effect on [14C]doxorubicin transport: strong inhibitory effect
[6]; ratio of IC50 values, Table I
  IC50 of PSC833 less than that of Cs-A for [14C]doxorubicin transport: ~10 fold
